Test results as given in PubChem BioAssay (NCI).
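Exposure lasted 48 hours, with cells grown in 96-well plates and compounds tested at five concentrations. TGI is the concentration that stops growth completely.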

Columns and labels:
Test in all cases: inhibition of tumour cell growth, NCI panel, 48 h
786-0 renal = system: 786-0 renal
SNB-19 CNS = system: SNB-19 CNS
SK-OV-3 ovarian = system: SK-OV-3 ovarian
CCRF-CEM leukemia = system: CCRF-CEM leukemia
M14 melanoma = system: M14 melanoma
RXF 393 renal = system: RXF 393 renal
SF-268 CNS = system: SF-268 CNS
SW-620 colon = system: SW-620 colon
TK-10 renal = system: TK-10 renal
MDA-N = system: MDA-N
MOLT-4 leukemia = system: MOLT-4 leukemia
NCI-H23 lung = system: NCI-H23 lung
IGROV1 ovarian = system: IGROV1 ovarian
K-562 leukemia = system: K-562 leukemia
T-47D breast = system: T-47D breast
UO-31 renal = system: UO-31 renal
SNB-75 CNS = system: SNB-75 CNS
MDA-MB-435 = system: MDA-MB-435
UACC-257 melanoma = system: UACC-257 melanoma
MALME-3M melanoma = system: MALME-3M melanoma
OVCAR-3 ovarian = system: OVCAR-3 ovarian
SK-MEL-2 melanoma = system: SK-MEL-2 melanoma
MCF7 breast = system: MCF7 breast
NCI/ADR-RES ovarian = system: NCI/ADR-RES ovarian
EKVX NSCLC = system: EKVX NSCLC
CAKI-1 renal = system: CAKI-1 renal
OVCAR-4 ovarian = system: OVCAR-4 ovarian
A498 renal = system: A498 renal
ACHN renal = system: ACHN renal
OVCAR-8 ovarian = system: OVCAR-8 ovarian
PC-3 prostate = system: PC-3 prostate
HL-60(TB) leukemia = system: HL-60(TB) leukemia
NCI-H460 lung = system: NCI-H460 lung
SR leukemia = system: SR leukemia
HCT-116 colon = system: HCT-116 colon
U251 CNS = system: U251 CNS
DU-145 prostate = system: DU-145 prostate
SK-MEL-28 melanoma = system: SK-MEL-28 melanoma
HOP-62 NSCLC = system: HOP-62 NSCLC
HCC-2998 colon = system: HCC-2998 colon
HS 578T breast = system: HS 578T breast
KM12 colon = system: KM12 colon
SK-MEL-5 melanoma = system: SK-MEL-5 melanoma
SN12C renal = system: SN12C renal
UACC-62 melanoma = system: UACC-62 melanoma
BT-549 breast = system: BT-549 breast
RPMI-8226 leukemia = system: RPMI-8226 leukemia
SF-539 CNS = system: SF-539 CNS
COLO 205 colon = system: COLO 205 colon
OVCAR-5 ovarian = system: OVCAR-5 ovarian
LOX IMVI melanoma = system: LOX IMVI melanoma
NCI-H226 lung = system: NCI-H226 lung
A549 NSCLC = system: A549 NSCLC
HT29 colon = system: HT29 colon
NCI-H522 lung = system: NCI-H522 lung
HCT-15 colon = system: HCT-15 colon
SF-295 CNS = system: SF-295 CNS
HOP-92 NSCLC = system: HOP-92 NSCLC

NC(=S)N1N=C(c2ccc3c(c2)CCC3)CC1c1ccccc1 (stereo not drawn)
TGI (786-0 renal): > 100 µM | TGI (SNB-19 CNS): > 100 µM | TGI (SK-OV-3 ovarian): 88.6 µM | TGI (CCRF-CEM leukemia): > 100 µM | TGI (M14 melanoma): > 100 µM | TGI (RXF 393 renal): 28 µM | TGI (SF-268 CNS): > 100 µM | TGI (SW-620 colon): > 100 µM | TGI (TK-10 renal): 87.1 µM | TGI (MDA-N): > 100 µM | TGI (MOLT-4 leukemia): > 100 µM | TGI (NCI-H23 lung): 95.5 µM | TGI (IGROV1 ovarian): > 100 µM | TGI (K-562 leukemia): > 100 µM | TGI (T-47D breast): 27.9 µM | TGI (UO-31 renal): > 100 µM | TGI (SNB-75 CNS): 56.1 µM | TGI (MDA-MB-435): 96.9 µM | TGI (UACC-257 melanoma): 86.9 µM | TGI (MALME-3M melanoma): 74.4 µM | TGI (OVCAR-3 ovarian): 55.8 µM | TGI (SK-MEL-2 melanoma): 36.2 µM | TGI (MCF7 breast): 45.2 µM | TGI (NCI/ADR-RES ovarian): 58.6 µM | TGI (EKVX NSCLC): > 100 µM | TGI (CAKI-1 renal): > 100 µM | TGI (OVCAR-4 ovarian): 85.2 µM | TGI (A498 renal): 29.2 µM | TGI (ACHN renal): > 100 µM | TGI (OVCAR-8 ovarian): > 100 µM | TGI (PC-3 prostate): 87.8 µM | TGI (HL-60(TB) leukemia): 44.5 µM | TGI (NCI-H460 lung): 64.9 µM | TGI (SR leukemia): 95.5 µM | TGI (HCT-116 colon): 87.6 µM | TGI (U251 CNS): 63.5 µM | TGI (DU-145 prostate): 80.8 µM | TGI (SK-MEL-28 melanoma): > 100 µM | TGI (HOP-62 NSCLC): 87 µM | TGI (HCC-2998 colon): 36.8 µM | TGI (HS 578T breast): > 100 µM | TGI (KM12 colon): > 100 µM | TGI (SK-MEL-5 melanoma): 31.3 µM | TGI (SN12C renal): > 100 µM | TGI (UACC-62 melanoma): 74.1 µM | TGI (BT-549 breast): 98.3 µM | TGI (RPMI-8226 leukemia): 51.7 µM | TGI (SF-539 CNS): 43 µM | TGI (COLO 205 colon): 50.8 µM | TGI (OVCAR-5 ovarian): > 100 µM | TGI (LOX IMVI melanoma): > 100 µM | TGI (NCI-H226 lung): > 100 µM | TGI (A549 NSCLC): > 100 µM | TGI (HT29 colon): > 100 µM | TGI (NCI-H522 lung): 24.7 µM | TGI (HCT-15 colon): 69.6 µM | TGI (SF-295 CNS): 68.3 µM | TGI (HOP-92 NSCLC): 85.7 µM
